Measurements reported in BindingDB's records for doi:10.3109/14756366.2010.486794 (University of Lisbon, 2011).

Biological target: T1, Neutrophil elastase (Homo sapiens, UniProt P08246)
T1 sequence (P08246 whole entry): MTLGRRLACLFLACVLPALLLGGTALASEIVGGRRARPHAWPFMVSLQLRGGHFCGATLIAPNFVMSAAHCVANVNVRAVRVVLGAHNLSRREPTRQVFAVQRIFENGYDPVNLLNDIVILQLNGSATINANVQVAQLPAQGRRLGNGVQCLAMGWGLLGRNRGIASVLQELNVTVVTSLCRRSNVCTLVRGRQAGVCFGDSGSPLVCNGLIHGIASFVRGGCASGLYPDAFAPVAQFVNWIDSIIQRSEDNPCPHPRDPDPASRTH
Experiment: Enzyme Kinetic Assay
Settings: 25 °C
Procedure: The inhibition of the HLE was studied at 25°C by continuously monitoring the absorbance at 410 nm for 20 min of a solution prepared by mixing 10 μL of HLE stock solution (2 μM in 0.05M acetate buffer, pH 5.5) with a solution containing 10 μL of 5 in DMSO, 20 μL of MeOSuc-Ala-Ala-Pro-Val-p-NA (50 mM in DMSO) and 960 μL of 0.1M pH 7.2 HEPES buffer. Control assays, in which the inhibitor was omitted, ran linearly.

SMILES: CCC1(CC)C(=O)N(c2ccc(CS(=O)(=O)c3ccccc3)cc2)C1=O [4-oxo-β-lactam (3)]
- Ki: 0.63 nM
